In ChEMBL document CHEMBL3885861, “Open TG-GATES”:

Species: Rattus norvegicus
Assay: Open TG-GATES - Regimen: Daily Repeat
Format: toxicity, organism-based, Sprague-Dawley
Design: regimen Daily Repeat, gender Male, age 6 weeks
Conditions: in vivo, po, 0 mg/kg, route gavage, dose level Control; for APTT / Bas / Eos / Fbg / Hb / Ht / Lym / MCH / MCHC / MCV / Mono / Neu / PT / Plat / RBC / Ret / WBC: tissue Blood; for KIDNEY_L / KIDNEY_R / KIDNEY_TOTAL: tissue Kidney; for LIVER: tissue Liver; for A/G / ALP / ALT / AST / BUN / CRE / Ca / Cl / DBIL / GLC / IP / K / LDH / Na / PL / RALB / TBIL / TC / TG / TP / gamma-GTP: tissue Plasma

SMILES: O=C(O)c1ccccc1Nc1ccccc1 [FENAMIC ACID]
- TERMINAL_BW (72 h, time 3 day): 237 g
- APTT (72 h, time 3 day): 16.2 s
- Bas (72 h, time 3 day): 0.4%
- Eos (72 h, time 3 day): 1.2%
- Fbg (72 h, time 3 day): 270.2 mg/dL
- Hb (72 h, time 3 day): 13.9 g/dL
- Ht (72 h, time 3 day): 41.7%
- Lym (72 h, time 3 day): 75.2%
- MCH (72 h, time 3 day): 20.9 pg
- MCHC (72 h, time 3 day): 33.3%
- MCV (72 h, time 3 day): 62.7 fL
- Mono (72 h, time 3 day): 2.6%
- Neu (72 h, time 3 day): 20.6%
- PT (72 h, time 3 day): 14.3 s
- Plat (72 h, time 3 day): 121.2 x10_4/uL
- RBC (72 h, time 3 day): 664.6 x10_4/ul
- Ret (72 h, time 3 day): 6.5%
- WBC (72 h, time 3 day): 95.3 x10_2/uL
- KIDNEY_L (72 h, time 3 day): 1 g
- KIDNEY_R (72 h, time 3 day): 1 g
- KIDNEY_TOTAL (72 h, time 3 day): 2 g
- LIVER (72 h, time 3 day): 10.9 g
- A/G (72 h, time 3 day): 0.9
- ALP (72 h, time 3 day): 1663.4 IU/L
- ALT (72 h, time 3 day): 35.4 IU/L
- AST (72 h, time 3 day): 63.4 IU/L
- BUN (72 h, time 3 day): 13.2 mg/dL
- CRE (72 h, time 3 day): 0.2 mg/dL
- Ca (72 h, time 3 day): 11.6 mg/dL
- Cl (72 h, time 3 day): 106.8 meq/L
- DBIL (72 h, time 3 day): 0.01 mg/dL
- GLC (72 h, time 3 day): 185.8 mg/dL
- IP (72 h, time 3 day): 7.2 mg/dL
- K (72 h, time 3 day): 4.3 meq/L
- LDH (72 h, time 3 day): 97.8 IU/L
- Na (72 h, time 3 day): 143.8 meq/L
- PL (72 h, time 3 day): 147.4 mg/dL
- RALB (72 h, time 3 day): 2.7 g/dL
- TBIL (72 h, time 3 day): 0.044 mg/dL
- TC (72 h, time 3 day): 73.4 mg/dL
- TG (72 h, time 3 day): 91.8 mg/dL
- TP (72 h, time 3 day): 5.7 g/dL
- gamma-GTP (72 h, time 3 day): 1.6 IU/L
- TERMINAL_BW ([…], time 7 day): 271.7 g
- TERMINAL_BW ([…], time 14 day): 334.6 g
- TERMINAL_BW ([…], time 28 day): 425.8 g
- APTT ([…], time 7 day): 16.2 s
- Bas ([…], time 7 day): 0.8%
- Eos ([…], time 7 day): 1%
- Fbg ([…], time 7 day): 278.2 mg/dL
- Hb ([…], time 7 day): 13.5 g/dL
- Ht ([…], time 7 day): 40.3%
- Lym ([…], time 7 day): 80.2%
- MCH ([…], time 7 day): 20.5 pg
- MCHC ([…], time 7 day): 33.5%
- MCV ([…], time 7 day): 61 fL
- Mono ([…], time 7 day): 2.2%
- Neu ([…], time 7 day): 15.6%
- PT ([…], time 7 day): 13.8 s
- Plat ([…], time 7 day): 118.4 x10_4/uL
- RBC ([…], time 7 day): 661.2 x10_4/ul
- Ret ([…], time 7 day): 5.4%
- WBC ([…], time 7 day): 84.5 x10_2/uL
- APTT ([…], time 14 day): 16.3 s
- Bas ([…], time 14 day): 0.4%
- Eos ([…], time 14 day): 1%
- Fbg ([…], time 14 day): 296.2 mg/dL
- Hb ([…], time 14 day): 14.5 g/dL
- Ht ([…], time 14 day): 42.3%
- Lym ([…], time 14 day): 82.6%
- MCH ([…], time 14 day): 20.2 pg
- MCHC ([…], time 14 day): 34.2%
- MCV ([…], time 14 day): 59.2 fL
- Mono ([…], time 14 day): 1.8%
- Neu ([…], time 14 day): 14.2%
- PT ([…], time 14 day): 14.1 s
- Plat ([…], time 14 day): 112.2 x10_4/uL
- RBC ([…], time 14 day): 714.8 x10_4/ul
- Ret ([…], time 14 day): 4%
- WBC ([…], time 14 day): 73.8 x10_2/uL
- APTT ([…], time 28 day): 15.8 s
- Bas ([…], time 28 day): 0.2%
- Eos ([…], time 28 day): 1%
- Fbg ([…], time 28 day): 296 mg/dL
- Hb ([…], time 28 day): 14.9 g/dL
- Ht ([…], time 28 day): 43%
- Lym ([…], time 28 day): 79.2%
- MCH ([…], time 28 day): 19.4 pg
- MCHC ([…], time 28 day): 34.6%
- MCV ([…], time 28 day): 55.9 fL
- Mono ([…], time 28 day): 1.6%
- Neu ([…], time 28 day): 17.2%
- PT ([…], time 28 day): 14.2 s
- Plat ([…], time 28 day): 104.1 x10_4/uL
- RBC ([…], time 28 day): 768.8 x10_4/ul
- Ret ([…], time 28 day): 2.7%
- WBC ([…], time 28 day): 92.6 x10_2/uL
- KIDNEY_L ([…], time 7 day): 1.1 g
- KIDNEY_R ([…], time 7 day): 1.1 g
- KIDNEY_TOTAL ([…], time 7 day): 2.2 g
- KIDNEY_L ([…], time 14 day): 1.3 g
- KIDNEY_R ([…], time 14 day): 1.3 g
- KIDNEY_TOTAL ([…], time 14 day): 2.5 g
- KIDNEY_L ([…], time 28 day): 1.5 g
- KIDNEY_R ([…], time 28 day): 1.5 g
- KIDNEY_TOTAL ([…], time 28 day): 2.9 g
- LIVER ([…], time 7 day): 12.7 g
- LIVER ([…], time 14 day): 14.7 g
- LIVER ([…], time 28 day): 17 g
- A/G ([…], time 7 day): 0.9
- ALP ([…], time 7 day): 1493 IU/L
- ALT ([…], time 7 day): 38 IU/L
- AST ([…], time 7 day): 68.4 IU/L
- BUN ([…], time 7 day): 14.2 mg/dL
- CRE ([…], time 7 day): 0.2 mg/dL
- Ca ([…], time 7 day): 11.4 mg/dL
- Cl ([…], time 7 day): 106.2 meq/L
- DBIL ([…], time 7 day): 0.01 mg/dL
- GLC ([…], time 7 day): 190.4 mg/dL
- IP ([…], time 7 day): 6.7 mg/dL
- K ([…], time 7 day): 4.3 meq/L
- LDH ([…], time 7 day): 105 IU/L
- Na ([…], time 7 day): 143.2 meq/L
- PL ([…], time 7 day): 148.4 mg/dL
- RALB ([…], time 7 day): 2.6 g/dL
- TBIL ([…], time 7 day): 0.03 mg/dL
- TC ([…], time 7 day): 73 mg/dL
- TG ([…], time 7 day): 119.4 mg/dL
- TP ([…], time 7 day): 5.7 g/dL
- gamma-GTP ([…], time 7 day): 1 IU/L
- A/G ([…], time 14 day): 0.8
- ALP ([…], time 14 day): 1698.4 IU/L
- ALT ([…], time 14 day): 36 IU/L
- AST ([…], time 14 day): 63.2 IU/L
- BUN ([…], time 14 day): 13.8 mg/dL
- CRE ([…], time 14 day): 0.3 mg/dL
- Ca ([…], time 14 day): 11.2 mg/dL
- Cl ([…], time 14 day): 105.2 meq/L
- DBIL ([…], time 14 day): 0.004 mg/dL
- GLC ([…], time 14 day): 184 mg/dL
- IP ([…], time 14 day): 7.1 mg/dL
- K ([…], time 14 day): 4 meq/L
- LDH ([…], time 14 day): 78.2 IU/L
- Na ([…], time 14 day): 144 meq/L
- PL ([…], time 14 day): 143.2 mg/dL
- RALB ([…], time 14 day): 2.7 g/dL
- TBIL ([…], time 14 day): 0.032 mg/dL
- TC ([…], time 14 day): 68.6 mg/dL
- TG ([…], time 14 day): 108.6 mg/dL
- TP ([…], time 14 day): 5.9 g/dL
- gamma-GTP ([…], time 14 day): 1 IU/L
- A/G ([…], time 28 day): 0.8
- ALP ([…], time 28 day): 1171.8 IU/L
- ALT ([…], time 28 day): 32.4 IU/L
- AST ([…], time 28 day): 58.2 IU/L
- BUN ([…], time 28 day): 14.8 mg/dL
- CRE ([…], time 28 day): 0.3 mg/dL
- Ca ([…], time 28 day): 11.1 mg/dL
- Cl ([…], time 28 day): 105.2 meq/L
- DBIL ([…], time 28 day): 0.006 mg/dL
- GLC ([…], time 28 day): 192.8 mg/dL
- IP ([…], time 28 day): 6.9 mg/dL
- K ([…], time 28 day): 4 meq/L
- LDH ([…], time 28 day): 104 IU/L
- Na ([…], time 28 day): 144.4 meq/L
- PL ([…], time 28 day): 133.8 mg/dL
